Test results taken from paper PMC11042424, “Development of a First-in-Class RIPK1 Degrader to Enhance Antitumor Immunity” (Research Square, 2024).

Biological target: T1, RIPK1 and VHL (Homo sapiens, UniProt P40337+Q13546)
T1 construct: Addgene backbone 87075 (RIPK1 vector, made in house) N273A; host or cells: HEK293T
Assay: NanoBRET live-cell ternary complex assay
Format: cell-based
Conditions: HEK293 cells co-transfected with nLuc-RIPK1 and VHL-Halo
Experimental: Figure 2 LD4172, a RIPK1 PROTAC, induces potent and highly specific degradation of RIPK1 in a panel of cell lines. A, Chemical structures of RIPK1 PROTAC, LD4172, and its negative control, LD4172-NC. […] B, Quantification of RIPK1 levels in both Jurkat and B16F10 cells treated with LD4172 at indicated concentrations for 24 h, followed by Western blotting. C, DC50 and Dmax of LD4172 in various human and mouse cell lines. DC50, the drug concentration causing 50% protein degradation; Dmax, the maximum level of protein degradation. D, RIPK1 degradation kinetics induced by LD4172 treatment (1 μM) and resynthesis kinetics upon washout of LD4172 in both Jurkat and B16F10 cells. […] G, Time-resolved fluorescence resonance energy transfer (TR-FRET) based biochemical binding assay for RIPK1. […] In total, ~10,000 proteins were quantified in the proteomics experiment. […]
Human RIPK1 cDNA insert was cloned into pLenti6.2-ccdB-nLuc plasmid (87075, Addgene, a kind gift from Taipale Lab) using gateway cloning kit (11791020, Thermo) and standard protocol to obtain pLenti6.2-RIPK1-nLuc fusion vector. […] Immediately before reading the plate, prepare 4x concentrated NanoGlo nLuc substrate (N157, Promega) was prepared by diluting the stock into Opti-MEM 1,000-fold, and the NanoGlo substrate was then added into each well to bring the final concentration to 1x. […]

SMILES: Cc1ncsc1-c1ccc([C@H](C)NC(=O)[C@@H]2C[C@@H](O)CN2C(=O)[C@@H](NC(=O)CCCCCCCCCCC(=O)NCCCn2cc(-c3ccc4c(c3)CCN4C(=O)Cc3cccc(OC(F)(F)F)c3)c3c(N)ncnc32)C(C)(C)C)cc1 [LD4172]
- ternary complex formation, NanoBRET between RIPK1 and VHL: induced NanoBRET between RIPK1 and VHL
